Data taken from ChEMBL document CHEMBL1139410, “Potent CCR4 antagonists: synthesis, evaluation, and docking study of 2,4-diaminoquinazolines” (Bioorg Med Chem, 2008).
pIC50: −log10 of the molar value.

What was measured:
[1] = target: T1, C-C chemokine receptor type 4 (Mus musculus) (UniProt P51680); assay: Antagonist activity at mouse CCR4 receptor assessed as inhibition of CCL22-induced chemotaxis at 1 uM by bioluminescent assay; assay type: functional
T1 sequence (whole entry): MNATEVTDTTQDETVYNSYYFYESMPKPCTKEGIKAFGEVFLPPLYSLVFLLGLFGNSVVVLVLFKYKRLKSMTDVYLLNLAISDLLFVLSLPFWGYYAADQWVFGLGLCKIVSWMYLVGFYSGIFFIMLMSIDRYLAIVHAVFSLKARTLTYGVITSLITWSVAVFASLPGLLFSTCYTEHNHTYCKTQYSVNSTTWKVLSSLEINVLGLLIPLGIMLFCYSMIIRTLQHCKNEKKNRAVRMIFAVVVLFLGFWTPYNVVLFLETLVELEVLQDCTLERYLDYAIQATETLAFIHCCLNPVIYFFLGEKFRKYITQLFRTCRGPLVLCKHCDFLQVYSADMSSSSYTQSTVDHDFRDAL

[2] = target: T2, C-C chemokine receptor type 4 (Homo sapiens, UniProt P51679); assay: Antagonist activity at human CCR4 receptor by [35S]GTPgammaS binding assay; assay type: functional
T2 sequence (P51679 whole entry): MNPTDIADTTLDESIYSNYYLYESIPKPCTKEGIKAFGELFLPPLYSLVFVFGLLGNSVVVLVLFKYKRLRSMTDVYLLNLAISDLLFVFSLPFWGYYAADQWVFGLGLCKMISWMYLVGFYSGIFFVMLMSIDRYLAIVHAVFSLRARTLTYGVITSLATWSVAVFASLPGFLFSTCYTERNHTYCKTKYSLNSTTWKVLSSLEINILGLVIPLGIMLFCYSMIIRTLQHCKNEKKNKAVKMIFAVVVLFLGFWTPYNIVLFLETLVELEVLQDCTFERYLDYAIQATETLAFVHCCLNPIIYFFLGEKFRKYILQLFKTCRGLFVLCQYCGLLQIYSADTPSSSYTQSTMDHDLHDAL

[3] = target: T3, C-C chemokine receptor type 4 (Homo sapiens) (UniProt P51679); assay: Antagonist activity at human CCR4 receptor assessed as inhibition of CCL22-induced chemotaxis at 1 uM by bioluminescent assay; assay type: functional
T3 sequence (whole entry): T2 sequence (P51679 whole entry)

[4] = target: T2, C-C chemokine receptor type 4; assay: Displacement of […]CCL22 from human CCR4 receptor by scintillation proximity assay
Mus musculus = assay: Antiinflammatory activity against oxazolone-induced contact hypersensitivity in acute dermatitis BALB/c mouse model assessed as inhibition of ear swelling at 30 mg/kg, sc administered twice daily before 0.5 hrs and after 8 hrs of oxazolone challenge assessed after 24 hrs; assay type: functional; conditions: route subcutaneous

Row | inhibition [1] | pIC50 [2] | inhibition [3] | pIC50 [4] | Compound | inhibition in vivo at 30 mg/kg (Mus musculus)
1 | 42% | 7.04 | 15% | – | CCN(CC)CCN1CCCN(c2nc(Nc3ccc(Cl)cc3)c3cc(OC)c(OC)cc3n2)CC1 | –
2 | – | 6.26 | – | – | COc1cc2nc(N3CCCN(C4CCCCC4)CC3)nc(Nc3ccc(Cl)cc3)c2cc1OC | –
3 | – | 6.89 | – | – | COc1cc2nc(N3CCCN(CCN4CCCCC4)CC3)nc(Nc3ccc(Cl)cc3)c2cc1OC | –
4 | – | 7.62 | – | 6.82 | COc1cc2nc(N3CCC(N4CCCC4)CC3)nc(Nc3ccc(Cl)cc3)c2cc1OC | 42.5%
5 | 32% | 7.37 | – | – | COc1cc2nc(N3CCC(N(C)CCCO)CC3)nc(Nc3ccc(Cl)cc3)c2cc1OC | –
6 | – | 7.60 | – | – | COc1cc2nc(N3CCC(N4CCCC4)CC3)nc(Nc3ccc(F)c(F)c3)c2cc1OC | –
7 | – | 6.82 | – | – | COc1cc2nc(N3CCCN(CCN4CCCC4)CC3)nc(Nc3ccc(Cl)cc3)c2cc1OC | –
8 | 11% | 6.66 | 36% | 6.29 | COc1cc2nc(N3CCC(N4CCCC4)CC3)nc(Nc3cccc(Br)c3)c2cc1OC | –
9 | – | 7.51 | – | – | COc1cc2nc(N3CCC(N4CCCC4)CC3)nc(Nc3ccc(F)cc3)c2cc1OC | –
10 | – | 7.01 | 47% | – | COc1cc2nc(N3CCC(N(C)CCO)CC3)nc(Nc3ccc(Cl)cc3)c2cc1OC | –
11 | 42% | 7.21 | – | – | COc1cc2nc(N3CCC(N(C)CCCCO)CC3)nc(Nc3ccc(Cl)cc3)c2cc1OC | –
